pKi: −log10 of the molar value. “And” between values parts separate entries of the source, which are not always exact repeats. Equal entries are not always repeated.
Experiments:
Estrogen receptor beta [1] = biological target: T1, Estrogen receptor beta (Homo sapiens, UniProt Q92731)
Estrogen receptor beta [2] = biological target: T1, Estrogen receptor beta; test: Agonist effect on transcriptional activation in HEC-1 cells expressing Estrogen receptor beta at 10e-8 M; type: functional, cell-based
Estrogen receptor = biological target: T2, Estrogen receptor (Homo sapiens, UniProt P03372)
T2 sequence (P03372 whole entry): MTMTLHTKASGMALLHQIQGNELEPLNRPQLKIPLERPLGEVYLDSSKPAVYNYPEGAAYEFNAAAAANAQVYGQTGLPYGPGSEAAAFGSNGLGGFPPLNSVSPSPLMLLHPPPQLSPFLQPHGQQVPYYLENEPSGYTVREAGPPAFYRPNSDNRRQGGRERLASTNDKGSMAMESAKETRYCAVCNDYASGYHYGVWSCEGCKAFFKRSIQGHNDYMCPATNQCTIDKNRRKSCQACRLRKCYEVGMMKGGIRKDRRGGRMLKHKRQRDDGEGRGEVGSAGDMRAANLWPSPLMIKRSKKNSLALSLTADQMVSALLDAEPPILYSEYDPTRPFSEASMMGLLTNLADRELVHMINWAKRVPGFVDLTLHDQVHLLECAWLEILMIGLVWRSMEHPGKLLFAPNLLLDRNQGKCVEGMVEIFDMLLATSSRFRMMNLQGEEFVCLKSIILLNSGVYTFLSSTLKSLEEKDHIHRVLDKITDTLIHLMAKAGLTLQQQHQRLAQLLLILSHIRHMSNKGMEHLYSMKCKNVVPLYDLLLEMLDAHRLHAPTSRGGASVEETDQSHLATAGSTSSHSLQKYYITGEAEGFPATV

Estrogen receptor beta [3] = biological target: T1, Estrogen receptor beta; test: Antagonist effect on transcriptional activation in HEC-1 cells expressing Estrogen receptor beta at 10e-6 M against 10e-9 M estradiol; type: functional, cell-based

T1 sequence (Q92731 whole entry): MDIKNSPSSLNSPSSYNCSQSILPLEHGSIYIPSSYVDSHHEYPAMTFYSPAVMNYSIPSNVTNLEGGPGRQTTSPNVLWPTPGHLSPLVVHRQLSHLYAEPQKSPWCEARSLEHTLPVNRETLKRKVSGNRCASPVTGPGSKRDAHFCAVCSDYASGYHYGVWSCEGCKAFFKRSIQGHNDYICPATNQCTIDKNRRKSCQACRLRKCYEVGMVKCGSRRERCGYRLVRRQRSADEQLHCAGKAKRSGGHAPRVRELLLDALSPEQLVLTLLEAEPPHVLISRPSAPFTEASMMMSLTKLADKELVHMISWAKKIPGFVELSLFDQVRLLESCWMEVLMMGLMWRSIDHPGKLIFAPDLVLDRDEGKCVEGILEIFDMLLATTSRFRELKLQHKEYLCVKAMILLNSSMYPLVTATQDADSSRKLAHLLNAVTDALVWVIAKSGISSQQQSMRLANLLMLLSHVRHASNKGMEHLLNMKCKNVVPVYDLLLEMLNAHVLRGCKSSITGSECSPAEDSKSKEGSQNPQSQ

Row | Structure (SMILES) | pKi (Estrogen receptor beta [1]) | Efficacy (Estrogen receptor beta [2]) | pKi (Estrogen receptor) | Efficacy (Estrogen receptor beta [3])
1 | CNc1c(/C=N/O)ccc(-c2ccccc2)c1-c1ccccc1 | 8.28 | 1.1% and 22% | 8.43 | 71%
2 | CCNc1c(/C=N/O)ccc(-c2ccccc2)c1-c1ccccc1 | 10.32 | 0.94% and 4.9% | 9.33 | 85%
3 | O/N=C/c1ccc(-c2ccccc2)c(-c2ccccc2)c1O | 8.77 | 2.6% and 24% | 8.96 | 53%

Second part, the compound after the results:

Row | pKi (Estrogen receptor beta [1]) | Efficacy (Estrogen receptor beta [2]) | pKi (Estrogen receptor) | Efficacy (Estrogen receptor beta [3]) | Structure (SMILES)
4 | 9.57 | 1.3% and 20% | 9.82 | 69% | O/N=C/c1ccc(-c2ccccc2)c(-c2ccccc2)c1
5 | 8.55 | 6% and 23% | 8.66 | 31% | Nc1c(/C=N/O)ccc(-c2ccccc2)c1-c1ccccc1

From ChEMBL document CHEMBL1145083, “Novel estrogen receptor ligands based on an anthranylaldoxime structure: role of the phenol-type pseudocycle in the binding process” (J Med Chem, 2003)
